Data reported in ChEMBL document CHEMBL5724914, “Linking interpersonal differences in gut microbiota composition and drug biotransformation activity” (2024).

Settings: human gut metagenome, 24 h, 2 µM
Further: call rule not given here.

Compound | Bacterial Biotransformation
CC(=O)OCC(=O)[C@@]1(O)[C@@H](C)C[C@H]2[C@@H]3CCC4=CC(=O)C=C[C@]4(C)[C@@]3(F)[C@@H](O)C[C@@]21C [BETAMETHASONE ACETATE] | Compound metabolized
CN1CCOC(c2ccccc2)c2ccccc2C1 (stereo not given) [NEFOPAM] | Compound metabolized
Cc1ccc(-c2nc3ccc(C)cn3c2CC(=O)N(C)C)cc1 [ZOLPIDEM] | Compound metabolized
Nc1nc2ccc(OC(F)(F)F)cc2s1 [RILUZOLE] | Compound metabolized

Settings: human gut metagenome, 24 h, 2 µM
Remark: another data set of the same source

Compound | Bacterial Biotransformation
CC(=O)OCC(=O)[C@@]1(O)[C@@H](C)C[C@H]2[C@@H]3CCC4=CC(=O)C=C[C@]4(C)[C@@]3(F)[C@@H](O)C[C@@]21C [BETAMETHASONE ACETATE] | Compound metabolized
CN1CCOC(c2ccccc2)c2ccccc2C1 (stereo not given) [NEFOPAM] | Compound metabolized
Cc1ccc(-c2nc3ccc(C)cn3c2CC(=O)N(C)C)cc1 [ZOLPIDEM] | Compound NOT metabolized
Nc1nc2ccc(OC(F)(F)F)cc2s1 [RILUZOLE] | Compound metabolized

Assay: (§1) The drug is tested on Z-029 corresponding to rat gut metagenome with ENA study accession number: PRJEB37062 and ENA sample accession number: ERS12561828 for biotransformation under anaerobic condition. The drug concentrations were measured over 9 timepoints collected between 0 and 24 hours of incubation by liquid-chromatography-coupled mass spectrometry (LC–MS)
Settings: 2 µM

Compound | Bacterial Biotransformation
CC(=O)OCC(=O)[C@@]1(O)[C@@H](C)C[C@H]2[C@@H]3CCC4=CC(=O)C=C[C@]4(C)[C@@]3(F)[C@@H](O)C[C@@]21C [BETAMETHASONE ACETATE] | Compound metabolized
CN1CCOC(c2ccccc2)c2ccccc2C1 (stereo not given) [NEFOPAM] | Compound NOT metabolized
Cc1ccc(-c2nc3ccc(C)cn3c2CC(=O)N(C)C)cc1 [ZOLPIDEM] | Compound NOT metabolized
Nc1nc2ccc(OC(F)(F)F)cc2s1 [RILUZOLE] | Compound metabolized

Settings: human gut metagenome, 24 h, 2 µM
Remark: another data set of the same source

Compound | Bacterial Biotransformation
CC(=O)OCC(=O)[C@@]1(O)[C@@H](C)C[C@H]2[C@@H]3CCC4=CC(=O)C=C[C@]4(C)[C@@]3(F)[C@@H](O)C[C@@]21C [BETAMETHASONE ACETATE] | Compound metabolized
CN1CCOC(c2ccccc2)c2ccccc2C1 (stereo not given) [NEFOPAM] | Compound NOT metabolized
Cc1ccc(-c2nc3ccc(C)cn3c2CC(=O)N(C)C)cc1 [ZOLPIDEM] | Compound metabolized
Nc1nc2ccc(OC(F)(F)F)cc2s1 [RILUZOLE] | Compound metabolized

Settings: human gut metagenome, 24 h, 2 µM
Remark: another data set of the same source

Compound | Bacterial Biotransformation
CC(=O)OCC(=O)[C@@]1(O)[C@@H](C)C[C@H]2[C@@H]3CCC4=CC(=O)C=C[C@]4(C)[C@@]3(F)[C@@H](O)C[C@@]21C [BETAMETHASONE ACETATE] | Compound metabolized
CN1CCOC(c2ccccc2)c2ccccc2C1 (stereo not given) [NEFOPAM] | Compound NOT metabolized
Cc1ccc(-c2nc3ccc(C)cn3c2CC(=O)N(C)C)cc1 [ZOLPIDEM] | Compound NOT metabolized
Nc1nc2ccc(OC(F)(F)F)cc2s1 [RILUZOLE] | Compound NOT metabolized

Assay: as §1, with “on WLS-082” for “on Z-029”, “to human” for “to rat”, “number: ERS12561751” for “number: ERS12561828”
Settings: 2 µM

Compound | Bacterial Biotransformation
CC(=O)OCC(=O)[C@@]1(O)[C@@H](C)C[C@H]2[C@@H]3CCC4=CC(=O)C=C[C@]4(C)[C@@]3(F)[C@@H](O)C[C@@]21C [BETAMETHASONE ACETATE] | Compound metabolized
CN1CCOC(c2ccccc2)c2ccccc2C1 (stereo not given) [NEFOPAM] | Compound NOT metabolized
Cc1ccc(-c2nc3ccc(C)cn3c2CC(=O)N(C)C)cc1 [ZOLPIDEM] | Compound NOT metabolized
Nc1nc2ccc(OC(F)(F)F)cc2s1 [RILUZOLE] | Compound metabolized

Assay: as §1, with “Z-012” for “Z-029”, “to” for “to rat gut”, “ERS12561812” for “ERS12561828”
Settings: 2 µM

Compound | Bacterial Biotransformation
CC(=O)OCC(=O)[C@@]1(O)[C@@H](C)C[C@H]2[C@@H]3CCC4=CC(=O)C=C[C@]4(C)[C@@]3(F)[C@@H](O)C[C@@]21C [BETAMETHASONE ACETATE] | Compound NOT metabolized
CN1CCOC(c2ccccc2)c2ccccc2C1 (stereo not given) [NEFOPAM] | Compound NOT metabolized
Cc1ccc(-c2nc3ccc(C)cn3c2CC(=O)N(C)C)cc1 [ZOLPIDEM] | Compound NOT metabolized
Nc1nc2ccc(OC(F)(F)F)cc2s1 [RILUZOLE] | Compound metabolized

Assay: as §1, with “on WLS-240” for “on Z-029”, “to human” for “to rat”, “number: ERS12561773” for “number: ERS12561828”
Settings: 2 µM

Compound | Bacterial Biotransformation
CC(=O)OCC(=O)[C@@]1(O)[C@@H](C)C[C@H]2[C@@H]3CCC4=CC(=O)C=C[C@]4(C)[C@@]3(F)[C@@H](O)C[C@@]21C [BETAMETHASONE ACETATE] | Compound metabolized
CN1CCOC(c2ccccc2)c2ccccc2C1 (stereo not given) [NEFOPAM] | Compound NOT metabolized
Cc1ccc(-c2nc3ccc(C)cn3c2CC(=O)N(C)C)cc1 [ZOLPIDEM] | Compound metabolized
Nc1nc2ccc(OC(F)(F)F)cc2s1 [RILUZOLE] | Compound metabolized

Assay: as §1, with “on Z-003” for “on Z-029”, “to pig” for “to rat”, “number: ERS12561803” for “number: ERS12561828”
Settings: 2 µM

Compound | Bacterial Biotransformation
CC(=O)OCC(=O)[C@@]1(O)[C@@H](C)C[C@H]2[C@@H]3CCC4=CC(=O)C=C[C@]4(C)[C@@]3(F)[C@@H](O)C[C@@]21C [BETAMETHASONE ACETATE] | Compound metabolized
CN1CCOC(c2ccccc2)c2ccccc2C1 (stereo not given) [NEFOPAM] | Compound NOT metabolized
Cc1ccc(-c2nc3ccc(C)cn3c2CC(=O)N(C)C)cc1 [ZOLPIDEM] | Compound metabolized
Nc1nc2ccc(OC(F)(F)F)cc2s1 [RILUZOLE] | Compound metabolized

Settings: human gut metagenome, 24 h, 2 µM
Remark: another data set of the same source

Compound | Bacterial Biotransformation
CC(=O)OCC(=O)[C@@]1(O)[C@@H](C)C[C@H]2[C@@H]3CCC4=CC(=O)C=C[C@]4(C)[C@@]3(F)[C@@H](O)C[C@@]21C [BETAMETHASONE ACETATE] | Compound metabolized
CN1CCOC(c2ccccc2)c2ccccc2C1 (stereo not given) [NEFOPAM] | Compound NOT metabolized
Cc1ccc(-c2nc3ccc(C)cn3c2CC(=O)N(C)C)cc1 [ZOLPIDEM] | Compound NOT metabolized
Nc1nc2ccc(OC(F)(F)F)cc2s1 [RILUZOLE] | Compound metabolized

Settings: human gut metagenome, 24 h, 2 µM
Remark: another data set of the same source

Compound | Bacterial Biotransformation
CC(=O)OCC(=O)[C@@]1(O)[C@@H](C)C[C@H]2[C@@H]3CCC4=CC(=O)C=C[C@]4(C)[C@@]3(F)[C@@H](O)C[C@@]21C [BETAMETHASONE ACETATE] | Compound metabolized
CN1CCOC(c2ccccc2)c2ccccc2C1 (stereo not given) [NEFOPAM] | Compound metabolized
Cc1ccc(-c2nc3ccc(C)cn3c2CC(=O)N(C)C)cc1 [ZOLPIDEM] | Compound NOT metabolized
Nc1nc2ccc(OC(F)(F)F)cc2s1 [RILUZOLE] | Compound metabolized

Assay: as §1, with “on WLS-350” for “on Z-029”, “to human” for “to rat”, “number: ERS12561789” for “number: ERS12561828”
Settings: 2 µM

Compound | Bacterial Biotransformation
CC(=O)OCC(=O)[C@@]1(O)[C@@H](C)C[C@H]2[C@@H]3CCC4=CC(=O)C=C[C@]4(C)[C@@]3(F)[C@@H](O)C[C@@]21C [BETAMETHASONE ACETATE] | Compound metabolized
CN1CCOC(c2ccccc2)c2ccccc2C1 (stereo not given) [NEFOPAM] | Compound metabolized
Cc1ccc(-c2nc3ccc(C)cn3c2CC(=O)N(C)C)cc1 [ZOLPIDEM] | Compound NOT metabolized
Nc1nc2ccc(OC(F)(F)F)cc2s1 [RILUZOLE] | Compound NOT metabolized

Settings: human gut metagenome, 24 h, 2 µM
Remark: another data set of the same source

Compound | Bacterial Biotransformation
CC(=O)OCC(=O)[C@@]1(O)[C@@H](C)C[C@H]2[C@@H]3CCC4=CC(=O)C=C[C@]4(C)[C@@]3(F)[C@@H](O)C[C@@]21C [BETAMETHASONE ACETATE] | Compound metabolized
CN1CCOC(c2ccccc2)c2ccccc2C1 (stereo not given) [NEFOPAM] | Compound NOT metabolized
Cc1ccc(-c2nc3ccc(C)cn3c2CC(=O)N(C)C)cc1 [ZOLPIDEM] | Compound NOT metabolized
Nc1nc2ccc(OC(F)(F)F)cc2s1 [RILUZOLE] | Compound metabolized

Assay: as §1, with “on Z-018” for “on Z-029”, “to pig” for “to rat”, “number: ERS12561817” for “number: ERS12561828”
Settings: 2 µM

Compound | Bacterial Biotransformation
CC(=O)OCC(=O)[C@@]1(O)[C@@H](C)C[C@H]2[C@@H]3CCC4=CC(=O)C=C[C@]4(C)[C@@]3(F)[C@@H](O)C[C@@]21C [BETAMETHASONE ACETATE] | Compound NOT metabolized
CN1CCOC(c2ccccc2)c2ccccc2C1 (stereo not given) [NEFOPAM] | Compound NOT metabolized
Cc1ccc(-c2nc3ccc(C)cn3c2CC(=O)N(C)C)cc1 [ZOLPIDEM] | Compound NOT metabolized
Nc1nc2ccc(OC(F)(F)F)cc2s1 [RILUZOLE] | Compound metabolized

Settings: human gut metagenome, 24 h, 2 µM
Remark: another data set of the same source

Compound | Bacterial Biotransformation
CC(=O)OCC(=O)[C@@]1(O)[C@@H](C)C[C@H]2[C@@H]3CCC4=CC(=O)C=C[C@]4(C)[C@@]3(F)[C@@H](O)C[C@@]21C [BETAMETHASONE ACETATE] | Compound metabolized
CN1CCOC(c2ccccc2)c2ccccc2C1 (stereo not given) [NEFOPAM] | Compound NOT metabolized
Cc1ccc(-c2nc3ccc(C)cn3c2CC(=O)N(C)C)cc1 [ZOLPIDEM] | Compound metabolized
Nc1nc2ccc(OC(F)(F)F)cc2s1 [RILUZOLE] | Compound metabolized

Assay: as §1, with “Z-005” for “Z-029”, “to” for “to rat gut”, “ERS12561805” for “ERS12561828”
Settings: 2 µM

Compound | Bacterial Biotransformation
CC(=O)OCC(=O)[C@@]1(O)[C@@H](C)C[C@H]2[C@@H]3CCC4=CC(=O)C=C[C@]4(C)[C@@]3(F)[C@@H](O)C[C@@]21C [BETAMETHASONE ACETATE] | Compound metabolized
CN1CCOC(c2ccccc2)c2ccccc2C1 (stereo not given) [NEFOPAM] | Compound NOT metabolized
Cc1ccc(-c2nc3ccc(C)cn3c2CC(=O)N(C)C)cc1 [ZOLPIDEM] | Compound NOT metabolized
Nc1nc2ccc(OC(F)(F)F)cc2s1 [RILUZOLE] | Compound metabolized

Settings: human gut metagenome, 24 h, 2 µM
Remark: another data set of the same source

Compound | Bacterial Biotransformation
CC(=O)OCC(=O)[C@@]1(O)[C@@H](C)C[C@H]2[C@@H]3CCC4=CC(=O)C=C[C@]4(C)[C@@]3(F)[C@@H](O)C[C@@]21C [BETAMETHASONE ACETATE] | Compound metabolized
CN1CCOC(c2ccccc2)c2ccccc2C1 (stereo not given) [NEFOPAM] | Compound metabolized
Cc1ccc(-c2nc3ccc(C)cn3c2CC(=O)N(C)C)cc1 [ZOLPIDEM] | Compound metabolized
Nc1nc2ccc(OC(F)(F)F)cc2s1 [RILUZOLE] | Compound metabolized

Settings: human gut metagenome, 24 h, 2 µM
Remark: another data set of the same source

Compound | Bacterial Biotransformation
CC(=O)OCC(=O)[C@@]1(O)[C@@H](C)C[C@H]2[C@@H]3CCC4=CC(=O)C=C[C@]4(C)[C@@]3(F)[C@@H](O)C[C@@]21C [BETAMETHASONE ACETATE] | Compound metabolized
CN1CCOC(c2ccccc2)c2ccccc2C1 (stereo not given) [NEFOPAM] | Compound metabolized
Cc1ccc(-c2nc3ccc(C)cn3c2CC(=O)N(C)C)cc1 [ZOLPIDEM] | Compound NOT metabolized
Nc1nc2ccc(OC(F)(F)F)cc2s1 [RILUZOLE] | Compound metabolized

Assay: as §1, with “Z-007” for “Z-029”, “ERS12561807” for “ERS12561828”
Settings: 2 µM

Compound | Bacterial Biotransformation
CC(=O)OCC(=O)[C@@]1(O)[C@@H](C)C[C@H]2[C@@H]3CCC4=CC(=O)C=C[C@]4(C)[C@@]3(F)[C@@H](O)C[C@@]21C [BETAMETHASONE ACETATE] | Compound NOT metabolized
CN1CCOC(c2ccccc2)c2ccccc2C1 (stereo not given) [NEFOPAM] | Compound NOT metabolized
Cc1ccc(-c2nc3ccc(C)cn3c2CC(=O)N(C)C)cc1 [ZOLPIDEM] | Compound NOT metabolized
Nc1nc2ccc(OC(F)(F)F)cc2s1 [RILUZOLE] | Compound NOT metabolized

Settings: human gut metagenome, 24 h, 2 µM
Remark: another data set of the same source

Compound | Bacterial Biotransformation
CC(=O)OCC(=O)[C@@]1(O)[C@@H](C)C[C@H]2[C@@H]3CCC4=CC(=O)C=C[C@]4(C)[C@@]3(F)[C@@H](O)C[C@@]21C [BETAMETHASONE ACETATE] | Compound metabolized
CN1CCOC(c2ccccc2)c2ccccc2C1 (stereo not given) [NEFOPAM] | Compound metabolized
Cc1ccc(-c2nc3ccc(C)cn3c2CC(=O)N(C)C)cc1 [ZOLPIDEM] | Compound NOT metabolized
Nc1nc2ccc(OC(F)(F)F)cc2s1 [RILUZOLE] | Compound metabolized
